Results published in BindingDB's records for PubMed 37122541 (Emory University, 2023).

Target: rRNA adenine N-6-methyltransferase ErmC (Staphylococcus aureus)
Assay: Inhibition of Staphylococcus aureus ErmC methyltransferase

CC(C)c1ccc(NC(=S)N/N=C/c2cc(Cl)cc(Cl)c2O)cc1
IC50: 0.45 µM
